pEC50, pIC50: −log10 of the molar value. Where two headings read alike, the source gives them in different places.
Columns and labels:
SARS-CoV-2 [1] = settings: read-out: antiviral EC50; ref 39 (Kasprzyk et al.); cited from earlier work
SARS-CoV-2 WA strain = experiment: Checkerboard combination assay; format: cell-based; settings: Vero E6 cells
SARS-CoV-2 NSP14 MTase [2] = target: T1, SARS-CoV-2 NSP14 MTase (Severe acute respiratory syndrome coronavirus 2, UniProt P0DTD1); settings: read-out: anti-MTase IC50; ref 37 (Basu et al.); cited from earlier work
SARS-CoV-2 [3] = settings: read-out: antiviral EC50; ref 37 (Basu et al.); cited from earlier work
NS5 MTase of ZIKV = target: T2, NS5 MTase of ZIKV (Zika virus, UniProt Q32ZE1); experiment: FP-based FL-NAH displacement assay, ZIKV NS5; format: binding; settings: ZIKV NS5 2.5 µM, 96-well plate
T2 sequence (Q32ZE1 2517-2790): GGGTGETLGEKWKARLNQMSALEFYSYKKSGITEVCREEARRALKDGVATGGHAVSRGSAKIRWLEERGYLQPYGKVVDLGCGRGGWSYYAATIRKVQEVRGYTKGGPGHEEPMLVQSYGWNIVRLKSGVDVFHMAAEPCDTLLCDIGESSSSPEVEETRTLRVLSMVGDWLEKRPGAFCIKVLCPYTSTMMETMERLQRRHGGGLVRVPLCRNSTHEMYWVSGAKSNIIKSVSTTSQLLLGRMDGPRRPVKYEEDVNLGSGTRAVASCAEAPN

[4] = target: SARS-CoV-2 NSP16 2’-O MTase (Severe acute respiratory syndrome coronavirus 2, UniProt P0DTD1); experiment: FP-based FL-NAH displacement assay, NSP16; format: binding; settings: NSP16 0.5 µM, 96-well plate
SARS-CoV-2 NSP14 MTase [5] = target: T1, SARS-CoV-2 NSP14 MTase; experiment: FP-based FL-NAH displacement assay; format: binding
SARS-CoV-2 NSP14 MTase [6] = target: T1, SARS-CoV-2 NSP14 MTase; settings: read-out: anti-MTase IC50; ref 39 (Kasprzyk et al.); cited from earlier work

Nc1c(S(=O)(=O)O)cc(Nc2ccc(Nc3nc(Cl)nc(Nc4cccc(S(=O)(=O)O)c4)n3)c(S(=O)(=O)O)c2)c2c1C(=O)c1ccccc1C2=O [Reactive blue 2]
pEC50 (SARS-CoV-2 [1]): 4.79

CC(C)(C)[C@H](NC(=O)C(F)(F)F)C(=O)N1C[C@H]2[C@@H]([C@H]1C(=O)N[C@H](C#N)C[C@@H]1CCNC1=O)C2(C)C [nirmatrelvir]
EC50 shift in the presence of NSC111552 (1.67 µM) (SARS-CoV-2 WA strain): ~1.8 fold

O=C(CCCN1CCC(O)(c2cccc(C(F)(F)F)c2)CC1)c1ccc(F)cc1 [Trifluperidol]
pIC50 (SARS-CoV-2 NSP14 MTase [2]): 4.64
pEC50 (SARS-CoV-2 [3]): 4.22

C[S+](CC[C@H](N)C(=O)[O-])C[C@H]1O[C@@H](n2cnc3c(N)ncnc32)[C@H](O)[C@@H]1O (some centres unmarked) [SAM, S-adenosylmethionine]
quenching of FP from FL-NAH binding to the ZIKV NS5 MTase (NS5 MTase of ZIKV): quenched
quenching of FP from FL-NAH binding to NSP16 [4]: quenched
pIC50 (SARS-CoV-2 NSP14 MTase [5]): 4.60

NCCOc1cc(C(=O)Nc2cc(OCCN)c3ccccc3n2)nc(C(=O)Nc2cc(OCCN)c3ccccc3n2)c1 [Pyridostatin]
pIC50 (SARS-CoV-2 NSP14 MTase [6]): 5.39
pEC50 (SARS-CoV-2 [1]): 5.44

Cc1cc(-c2ccc(/N=N/c3ccc4c(S(=O)(=O)O)cc(S(=O)(=O)O)c(N)c4c3O)c(C)c2)ccc1/N=N/c1ccc2c(S(=O)(=O)O)cc(S(=O)(=O)O)c(N)c2c1O [Evans Blue]
pIC50 (SARS-CoV-2 NSP14 MTase [6]): 5.31
pEC50 (SARS-CoV-2 [1]): 4.51

CCC(CC)COC(=O)[C@H](C)N[P@](=O)(OC[C@H]1O[C@@](C#N)(c2ccc3c(N)ncnn23)[C@H](O)[C@@H]1O)Oc1ccccc1 [remdesivir]
EC50 decrease in the presence of NSC111552 ([…]) (SARS-CoV-2 WA strain): about 2.4 fold

N#Cc1ccc(N2N=C3c4ccc(C(=O)O)cc4CC[C@@H]3[C@@H]2C2CCCC2)cc1Cl [PF-03882845]
pEC50 (SARS-CoV-2 [3]): 4.96

Nc1ncnc2c1ncn2[C@@H]1O[C@H](CSCC[C@H](N)C(=O)O)[C@@H](O)[C@H]1O [SAH, S-adenosyl-L-homocysteine]
quenching of FP from FL-NAH binding to the ZIKV NS5 MTase (NS5 MTase of ZIKV): quenched
quenching of FP from FL-NAH binding to NSP16 [4]: quenched

Inauhzin
pIC50 (SARS-CoV-2 NSP14 MTase [2]): 4.89
pEC50 (SARS-CoV-2 [3]): 4.89

Source: PMC10165934 (Emerging Microbes & Infections, 2023)
